Values after ≈ are worked out from the molar mass of the structure shown. Where a SMILES comes first, the peptide text is derived from it. Bridges are numbered along the chain shown (N, C = ends). Roman numbers before positions name the chains, in order. [ ]: non-standard residue; d: D form. NMeV = CN[C@H](C(=O)O)C(C)C; Hiv = CC(C)[C@H](O)C(=O)O; dDab = NCC[C@@H](N)C(=O)O; hSer = N[C@@H](CCO)C(=O)O; Dab = NCC[C@H](N)C(=O)O; Abu = CC[C@H](N)C(=O)O; Dap = NC[C@H](N)C(=O)O
Experiments:
male ICR mice = assay: Tolerability in a mouse model (Maximum Tolerated Dose assay); assay type: in vivo; details: groups of 3
Description: The tolerability of the peptides was tested in a mouse model at Pharmacology Discovery Services Taiwan Ltd, Taipei, Taiwan. The peptides were administered subcutaneously (s.c.) at 30 mg/kg or 40 mg/kg, respectively; twice at a 12-hr interval, for assessment of possible adverse effects in the Maximum Tolerated Dose (MTD) assay in male ICR (Institute of Cancer Research) mice. The peptides were dissolved in 0.9% NaCl at the concentrations either of 6 or 8 mg/mL, respectively, based on the free base molecular weight. The pH values of dosing solutions were adjusted to 6.5-7.6 before s.c. administration. A dosing volume at 5 mL/kg and a concentration of 6 or 8 mg/mL, respectively, was applied. The fresh prepared stock solution were stored at 4° C. during the study. Male ICR mice weighing 23±3 g were provided by BioLasco Taiwan (under Charles River Laboratories Licensee). Animals were acclimated for 3 days prior to use and were confirmed to be in good health. The peptides were administered s.c. at 30 mg/kg or 40 mg/kg, respectively, twice at a 12-hr interval, to groups of 3 ICR male mice and observed for the presence of acute toxic symptoms (mortality, convulsions, tremors, muscle relaxation, sedation, etc.) and autonomic effects (diarrhea, salivation, lacrimation, vasodilation, piloerection, etc.) during the first 30 min. The peptides were administered again at a 12-hr (two total doses) interval, following the first dose. The animals were then observed again for the presence of acute toxic symptoms and autonomic effects during the first 30 min.

[1] = test system: human red blood cells (hRBC); assay: Hemolysis; assay type: cell-based; details: red cells of human, 1 h, 200
Procedure, shortened: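 Washed fresh human RBC (20% v/v) incubated with peptide at 200 μg/mL for 1 h at 37° C with shaking. Supernatant OD540 measured after dilution, blank corrected; percent hemolysis = OD540 peptide / OD540 of 2% Triton X-100 lysis × 100, PBS with 10% water as 0%.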

[2] = test system: Klebsiella pneumoniae SSI #3010; assay type: cell-based; details: SSI #3010
Procedure, shortened: (§1)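 Cation-adjusted MH-II broth, 0.002% polysorbate 80, inoculum near 10^6 CFU/mL. MIC read visually after 18-20 h, 35° C; units μg/mL.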

Escherichia coli 926415 = assay type: cell-based; details: 926415
Procedure, shortened: as §1

[3] = test system: Acinetobacter baumannii 872842; assay type: cell-based; details: 872842
Procedure, shortened: as §1

[4] = test system: Enterobacter cloacae 848840; assay type: cell-based; details: 848840
Procedure, shortened: as §1

[5] = test system: Acinetobacter baumannii DSM 30008; assay type: cell-based; details: DSM 30008
Procedure, shortened: as §1

[6] = test system: Escherichia coli ATCC 25922; assay type: cell-based; details: ATCC 25922
Procedure, shortened: as §1

[7] = test system: Pseudomonas aeruginosa ATCC 27853; assay type: cell-based; details: ATCC 27853
Procedure, shortened: as §1

[8] = test system: Klebsiella pneumoniae 968733; assay type: cell-based; details: 968733
Procedure, shortened: as §1

[9] = 2 × 30 mg/kg s.c. at a 12-hr interval
[10] = 2 × 40 mg/kg s.c. at a 12-hr interval

| SMILES | Mortality and dose (male ICR mice; [9]) | Hemolysis at 200 μg/mL [1] | MIC [2] | MIC (Escherichia coli 926415) | MIC [3] | MIC [4] | MIC [5] | MIC [6] | MIC [7] | MIC [8] | Mortality and dose (male ICR mice; [10]) | Klebsiella pneumoniae SSI #3010 MIC [2] | Acinetobacter baumannii DSM 30008 MIC [5] | Escherichia coli ATCC 25922 MIC [6] | Pseudomonas aeruginosa ATCC 27853 MIC [7] |
| --- | --- | --- | --- | --- | --- | --- | --- | --- | --- | --- | --- | --- | --- | --- | --- |
| CN[C@H](C(=O)N[C@H]1CSSC[C@@H](C(=O)N[C@@H](CO)C(N)=O)NC(=O)[C@H](C(C)C)NC(=O)[C@H](CO)NC(=O)[C@H](Cc2c[nH]c3ccccc23)NC(=O)[C@H](CCO)NC(=O)[C@@H](CCN)NC(=O)[C@H](CCC(=O)N[C@@H](CCN)C(=O)N[C@H](C(=O)N[C@@H](CCN)C(=O)N[C@H]2CCNC(=O)[C@H]([C@@H](C)O)NC(=O)[C@H](CCN)NC(=O)[C@H](CCN)NC(=O)[C@H](CC(C)C)NC(=O)[C@@H](CC(C)C)NC(=O)[C@H](CCN)NC2=O)[C@@H](C)O)NC(=O)[C@H](CCN)NC(=O)[C@H](Cc2ccc(O)cc2)NC1=O)C(C)C [Ex. 43] (I: H-[NMeV]CY[Dab]E[dDab][hSer]WSVCS-NH2 / II: [Dab]T[Dab][Dab][Dab][dL]L[Dab][Dab]T; disulfide I:2-I:11; amide I:5-II:N; lactam II:4-II:C) | 0/3 died at 2 × 30 mg/kg | <1% | 0.25 µg/mL (≈ 0.104 µM) | 0.5 µg/mL (≈ 0.208 µM) | 0.125 µg/mL (≈ 0.0521 µM) | 2 µg/mL (≈ 0.834 µM) | 0.5 µg/mL (≈ 0.208 µM) | 0.25 µg/mL (≈ 0.104 µM) | 0.5 µg/mL (≈ 0.208 µM) | 2 µg/mL (≈ 0.834 µM) | – | – | – | – | – |
| CC(=O)N[C@H](C(=O)N[C@H]1CSSC[C@@H](C(=O)N[C@@H](CO)C(N)=O)NC(=O)[C@H](C(C)C)NC(=O)[C@H](CO)NC(=O)[C@H](Cc2c[nH]c3ccccc23)NC(=O)[C@H](CCO)NC(=O)[C@@H](CCN)NC(=O)[C@H](CCC(=O)N[C@@H](CCN)C(=O)N[C@H](C(=O)N[C@@H](CCN)C(=O)N[C@H]2CCNC(=O)[C@H]([C@@H](C)O)NC(=O)[C@H](CCN)NC(=O)[C@H](CCN)NC(=O)[C@H](CC(C)C)NC(=O)[C@@H](CC(C)C)NC(=O)[C@H](CCN)NC2=O)[C@@H](C)O)NC(=O)[C@H](CCN)NC(=O)[C@H](Cc2ccc(O)cc2)NC1=O)C(C)C [Ex. 41] (I: Ac-VCY[Dab]E[dDab][hSer]WSVCS-NH2 / II: [Dab]T[Dab][Dab][Dab][dL]L[Dab][Dab]T; disulfide I:2-I:11; amide I:5-II:N; lactam II:4-II:C) | 0/3 died at 2 × 30 mg/kg | <1% | 0.125 µg/mL (≈ 0.0515 µM) | 0.25 µg/mL (≈ 0.103 µM) | 0.125 µg/mL (≈ 0.0515 µM) | 0.25 µg/mL (≈ 0.103 µM) | 0.0625 µg/mL (≈ 0.0258 µM) | 0.0625 µg/mL (≈ 0.0258 µM) | 0.25 µg/mL (≈ 0.103 µM) | 0.125 µg/mL (≈ 0.0515 µM) | – | – | – | – | – |
| CC(C)C[C@@H]1NC(=O)[C@@H](CC(C)C)NC(=O)[C@H](CCN)NC(=O)[C@@H](NC(=O)[C@H](CN)NC(=O)[C@@H](NC(=O)[C@H](CCN)NC(=O)CC[C@@H]2NC(=O)[C@H](CCN)NC(=O)[C@H](Cc3ccc(O)cc3)NC(=O)[C@@H](NC(=O)[C@@H](O)C(C)C)CSSC[C@@H](C(=O)N[C@@H](CO)C(N)=O)NC(=O)[C@H](C(C)C)NC(=O)[C@H](CO)NC(=O)[C@H](Cc3c[nH]c4ccccc34)NC(=O)[C@H](CO)NC(=O)[C@@H](CCN)NC2=O)[C@@H](C)O)CCNC(=O)[C@H]([C@@H](C)O)NC(=O)[C@H](CCN)NC(=O)[C@H](CCN)NC1=O [Ex. 115] (I: H-[Hiv]CY[Dab]E[dDab]SWSVCS-NH2 / II: [Dab]T[Dap][Dab][Dab][dL]L[Dab][Dab]T; disulfide I:2-I:11; amide I:5-II:N; lactam II:4-II:C) | 0/3 died at 2 × 30 mg/kg | <1% | 0.0625 µg/mL (≈ 0.0265 µM) | 0.125 µg/mL (≈ 0.053 µM) | 0.125 µg/mL (≈ 0.053 µM) | 0.0625 µg/mL (≈ 0.0265 µM) | 0.0625 µg/mL (≈ 0.0265 µM) | 0.0625 µg/mL (≈ 0.0265 µM) | 0.125 µg/mL (≈ 0.053 µM) | 0.25 µg/mL (≈ 0.106 µM) | – | – | – | – | – |
| CC(=O)N[C@H](C(=O)N[C@H]1CSSC[C@@H](C(=O)N[C@@H](CO)C(N)=O)NC(=O)[C@H](C(C)C)NC(=O)CNC(=O)[C@H](Cc2c[nH]c3ccccc23)NC(=O)[C@H](CO)NC(=O)[C@@H](CCN)NC(=O)[C@H](CCC(=O)N[C@@H](CCN)C(=O)N[C@H](C(=O)N[C@@H](CN)C(=O)N[C@H]2CCNC(=O)[C@H]([C@@H](C)O)NC(=O)[C@H](CCN)NC(=O)[C@H](CCN)NC(=O)[C@H](CC(C)C)NC(=O)[C@@H](CC(C)C)NC(=O)[C@H](CCN)NC2=O)[C@@H](C)O)NC(=O)[C@H](CCN)NC(=O)[C@H](Cc2ccc(O)cc2)NC1=O)C(C)C [Ex. 335] (I: Ac-VCY[Dab]E[dDab]SWGVCS-NH2 / II: [Dab]T[Dap][Dab][Dab][dL]L[Dab][Dab]T; disulfide I:2-I:11; amide I:5-II:N; lactam II:4-II:C) | – | <1% | – | 0.25 µg/mL (≈ 0.106 µM) | 0.25 µg/mL (≈ 0.106 µM) | 0.25 µg/mL (≈ 0.106 µM) | – | – | – | 0.5 µg/mL (≈ 0.211 µM) | 0/3 died at 2 × 40 mg/kg | 0.0625 µg/mL | 0.0625 µg/mL | 0.0625 µg/mL | 0.125 µg/mL |
| CC[C@@H]1NC(=O)[C@@H](CC(C)C)NC(=O)[C@H](CCN)NC(=O)[C@@H](NC(=O)[C@H](CN)NC(=O)[C@@H](NC(=O)[C@H](CCN)NC(=O)CC[C@@H]2NC(=O)[C@H](CO)NC(=O)[C@H](Cc3ccc(O)cc3)NC(=O)[C@@H](NC(=O)[C@@H](NC(C)=O)C(C)C)CSSC[C@@H](C(=O)N[C@@H](CO)C(N)=O)NC(=O)[C@H]([C@@H](C)CC)NC(=O)[C@H](CO)NC(=O)[C@H](Cc3c[nH]c4ccccc34)NC(=O)[C@H](CO)NC(=O)[C@@H](CCN)NC2=O)[C@@H](C)O)CCNC(=O)[C@H]([C@@H](C)O)NC(=O)[C@H](CCN)NC(=O)[C@H](CCN)NC1=O [Ex. 260] (I: Ac-VCYSE[dDab]SWSICS-NH2 / II: [Dab]T[Dap][Dab][Dab][dL][Abu][Dab][Dab]T; disulfide I:2-I:11; amide I:5-II:N; lactam II:4-II:C) | 0/3 died at 2 × 30 mg/kg | <1% | 0.0625 µg/mL (≈ 0.0264 µM) | 0.5 µg/mL (≈ 0.211 µM) | 0.0625 µg/mL (≈ 0.0264 µM) | 0.0625 µg/mL (≈ 0.0264 µM) | 0.01562 µg/mL (≈ 0.00659 µM) | 0.01562 µg/mL (≈ 0.00659 µM) | 0.0625 µg/mL (≈ 0.0264 µM) | 0.5 µg/mL (≈ 0.211 µM) | – | – | – | – | – |
| CC(=O)N[C@H](C(=O)N[C@H]1CSSC[C@@H](C(=O)N[C@@H](CO)C(N)=O)NC(=O)[C@H](C(C)C)NC(=O)[C@H](CO)NC(=O)[C@H](Cc2c[nH]c3ccccc23)NC(=O)[C@H](CO)NC(=O)[C@@H](CCN)NC(=O)[C@H](CCC(=O)N[C@@H](CCN)C(=O)N[C@H](C(=O)N[C@@H](CCN)C(=O)N[C@H]2CCNC(=O)[C@H]([C@@H](C)O)NC(=O)[C@H](CCN)NC(=O)[C@H](CCN)NC(=O)[C@H](CC(C)C)NC(=O)[C@@H](CC(C)C)NC(=O)[C@H](CCN)NC2=O)[C@@H](C)O)NC(=O)[C@H](CCN)NC(=O)[C@H](Cc2ccc(O)cc2)NC1=O)C(C)C [Ex. 334] (I: Ac-VCY[Dab]E[dDab]SWSVCS-NH2 / II: [Dab]T[Dab][Dab][Dab][dL]L[Dab][Dab]T; disulfide I:2-I:11; amide I:5-II:N; lactam II:4-II:C) | – | <1% | – | 0.25 µg/mL (≈ 0.104 µM) | 0.125 µg/mL (≈ 0.0518 µM) | 0.125 µg/mL (≈ 0.0518 µM) | – | – | – | 0.25 µg/mL (≈ 0.104 µM) | 0/3 died at 2 × 40 mg/kg | 0.0625 µg/mL | 0.03125 µg/mL | 0.03125 µg/mL | 0.125 µg/mL |

— US11629171B2, “Beta-hairpin peptidomimetics” (POLYPHOR AG, priority 2017, dated 2023)
